Measurements published in patent US12258308B2, “Benzene derivative” (ONO PHARMACEUTICAL CO., LTD., priority 2018, dated 2025).

What was measured:
[1] = system: streptozotocin-induced rat model; assay: Test using streptozotocin-induced rat model (nociceptive threshold, von Frey); type: in vivo; settings: for Nociceptive threshold improve rate (%) 7 days after withdrawal of administration: 0.3 mg/kg oral once per day day 14 to 28, 35 days after STZ; for Nociceptive threshold improve rate (%) After initial single administration: 14 days after STZ, 2 hours after administration; for Nociceptive threshold improve rate (%) 7 days after start of administration: 21 days after STZ; for Nociceptive threshold improve rate (%) 14 days after start of administration: 28 days after STZ
Experimental: Biological Experiment Example 2: Test Using Streptozotocin-Induced Rat Model
In order to evaluate the therapeutic effect of each of the compounds of the present invention on diabetic peripheral neuropathy, an in vivo test using a streptozotocin model was carried out.
A model was produced by intravenously administering streptozotocin (abbreviated as “STZ”, hereinafter) one time at a dose amount of 55 mg/kg to a rat.
(2) Measurement of Nociceptive Threshold
The rat was placed in a clear acryl measurement cage once or more times for 10 minutes or longer until the administration of STZ started. In this manner, the rat was acclimated to the measurement environment. Eight von Frey filaments respectively having weights of 0.4, 0.6, 1, 2, 4, 6, 8 and 15 g were applied vertically to a hindpaw of the rat from under a metallic mesh floor. When a quick escape or flinching reaction was observed, it was determined that a positive reaction occurred (i.e., “response was observed”). Each of the compounds of the present invention was administered orally once per day in a period from day 14 to day 28 after the administration of STZ, wherein the dose amount of each of the compounds was 0.03, 0.3 or 3 mg/kg. A nociceptive threshold was measured 2 hours after the administration of each of the compounds of the present invention at the timings of before the administration of STZ, 14 days after the administration of STZ (i.e., the day of the start of the administration of each of the compounds of the present invention), 21 days after the administration of STZ (i.e., 7 days after the start of the administration of the compound), 28 days after the administration of STZ (i.e., 14 days after the start of the administration of the compound), and 35 days after the administration of STZ (i.e., 7 days after the withdrawal of the administration of the compound).
The nociceptive threshold was measured by the up-down method in accordance with the method of Chaplan et. al. (J Neurosci Methods. 1994; 53:55-63). The rate of improvement in the nociceptive threshold was calculated in accordance with the following formula. Nociceptive threshold improve rate (%)=(nociceptive threshold on each of the number of days elapsed after administration of STZ−B)/(A−B)×100 [Math 2] • A: Nociceptive threshold before administration of STZ • B: Nociceptive threshold on 14 days elapsed after administration of STZ (Results)
The results of the nociceptive thresholds and the nociceptive threshold improve rates obtained when each of the compounds of the present invention was administered at a dose amount of 0.3 mg/kg are shown in the FIGURE and Table 2, respectively. With respect to all of the compounds, a potent pain relief effect against peripheral neuropathy was observed. With respect to the compound of Example 11, for example, the improvement in the nociceptive threshold was observed from 7 days after the start of the administration of the compound, and this effect lasted even 7 days after the withdrawal of the administration.

rat Schwann cells = assay: In vitro test using Schwann cells (Schwann cell differentiation promotion, MAG immunostaining); type: cell-based; settings: Rattus norvegicus, 72 h, 3 days, MAG-positive area/cell nuclei; for activity at 0.3 µM: compound 0.3 μmol/L, read-out: Schwann cell differentiation promotion rate (% of vehicle) 0.3 μmol/L; for activity at 3 µM: compound 3 μmol/L, read-out: Schwann cell differentiation promotion rate (% of vehicle) 3 μmol/L
Experimental: Biological Experiment Example 1: In Vitro Test Using Schwann Cells
• (1) Preparation of rat Schwann cells
A dorsal root ganglion (abbreviated as “DRG”, hereinafter) was excised from a newborn rat aged 0 to 2 days in a clean bench and was collected in DMEM. After the collection, the tube was centrifuged at 400 g, at room temperature for 3 minutes, then a supernatant was discarded, and a 0.25% collagenase solution was added. There resultant solution was incubated at 37° C. for 30 minutes to disperse and separate the excised DRG, and was then centrifuged at room temperature at 400 g for 3 minutes, then a supernatant was discarded, and then 0.25% Trypsin/EDTA and DNaseI were added. After the incubation at 37° C. for 30 minutes, trypsin was inactivated with DMEM supplemented with 10% FBS (10% FBS-DMEM), and centrifugation was carried out at room temperature at 400 g for 3 minutes. A supernatant was discarded, then 10% FBS-DMEM was added to the residue to prepare a cell suspension, and then the cell suspension was allowed to pass through a filter (diameter: 70 μm). The number of cells in the cell suspension which passed through the filter was counted to prepare a solution having a concentration of 2.0×10^5 cells/mL, and the suspension was seeded in a poly-D-lysine-coated 96-well black-clear plate in an amount of 100 μL/well and was then statically cultured in a CO2 incubator under the conditions including 5% of CO2, 95% of air and 37° C.
The culture medium in the cell culture plate was removed by suction using an aspirator, and then DMEM supplemented with 1% dialyzed FBS and 100 μmol/L dibutyryl cyclic AMP was added. Subsequently, a solution of a compound of the present invention dissolved in DMSO was added, and the resultant solution was statically cultured in a C02 incubator under the conditions including 5% of C02, 95% of air and a temperature of 37° C. The final concentration of the compound of the present invention in each well in the cell culture plate was adjusted to 0.1, 0.3, 1 or 3 μmol/L.
Three days after the treatment with the compound, formaldehyde was added to each well in the cell culture plate, and the cell culture plate was allowed to stand at room temperature for 30 minutes or longer. A supernatant was discarded, and then a 0.3% tritonX-100 solution was added to each well, and then the cell culture plate was allowed to stand at room temperature for 20 minutes or longer. A supernatant was discarded, then a 5-μg/mL anti-myeline-associated glycoprotein antibody (anti-MAG antibody) solution was added to each well, and then the cell culture plate was allowed to stand at room temperature for 60 minutes or longer or at 4° C. (acceptable range: 1 to 9° C.) overnight. Each well was washed with a 0.1% tritonX-100 solution three times, then a 10-μg/mL Alexa fluor 488 anti-mouse IgG solution was added to each well, and then the cell culture plate was allowed to stand at room temperature for 60 or longer or at 4° C. overnight. Each well was washed with a 0.1% tritonX-100 solution four times, and then a 1-μg/mL Hoechst33342 solution was added to each well to stain nuclei.
The Mag-positive area and the number of cell nuclei in a fluorescent image were calculated. With respect to each of the MAG-positive area and the number of cell nuclei, the sum total of values obtained in 5 viewing fields/well was determined. The values were employed as a value for the MAG-positive area and a value for the number of cell nuclei, respectively, in each well. Subsequently, a value determined by dividing the value for the MAG-positive area in each well by the value for the number of cell nuclei in the well (i.e., MAG/cell nuclei numerical value) was calculated. The Schwann cell differentiation promotion rate was determined for each of the vehicles in accordance with the following formula. […]

In the case of `O=C(O)CCc1ccccc1OCC[C@@H](O)CCc1cccc(C(O)Cc2ccccc2)c1` (stereo in doubt) [Example 36, 3-[2-[(3S)-3-Hydroxy-5-[3-[(1R)-1-hydroxy-2-phenylethyl]phenyl]pentoxy]phenyl]propanoic acid], the “Nociceptive threshold improve rate (%) 7 days after withdrawal of administration” value [1] is reported as 57.4 ± 10.74%, the “Nociceptive threshold improve rate (%) After initial single administration” value ([1]; 0.3 mg/kg oral once per day) is reported as 3.6 ± 7.07% and the “Nociceptive threshold improve rate (%) 7 days after start of administration” value ([1]; 0.3 mg/kg oral once per day) is reported as 57.1 ± 13.78%. The “Nociceptive threshold improve rate (%) 14 days after start of administration” value ([1]; 0.3 mg/kg oral once per day) was 64.2 ± 13.02%, the activity at 0.3 µM (rat Schwann cells) was 126% and the activity at 3 µM (rat Schwann cells) was 732%.
In the case of `O=C(O)CCc1ccccc1OCC[C@@H](O)CCc1cccc(C(O)Cc2ccccc2)c1` (stereo in doubt) [Example 37, 3-[2-[(3S)-3-Hydroxy-5-[3-[(1S)-1-hydroxy-2-phenylethyl]phenyl]pentoxy]phenyl]propanoic acid], the “Nociceptive threshold improve rate (%) 7 days after withdrawal of administration” value [1] is reported as 58.7 ± 19.84%, the “Nociceptive threshold improve rate (%) After initial single administration” value ([1]; 0.3 mg/kg oral once per day) is reported as −11.9 ± 10.78% and the “Nociceptive threshold improve rate (%) 7 days after start of administration” value ([1]; 0.3 mg/kg oral once per day) is reported as 61.3 ± 16.58%. The “Nociceptive threshold improve rate (%) 14 days after start of administration” value ([1]; 0.3 mg/kg oral once per day) was 78.9 ± 9.85%, the activity at 0.3 µM (rat Schwann cells) was 171% and the activity at 3 µM (rat Schwann cells) was 915%.
With `O=C(O)CCc1ccccc1OCC[C@@H](O)/C=C/c1cccc(NS(=O)(=O)c2ccccc2)c1` [Example 11, 3-[2-[(E,3R)-5-[3-(Benzenesulfonamido)phenyl]-3-hydroxypent-4-enoxy]phenyl]propanoic acid] the “Nociceptive threshold improve rate (%) 7 days after withdrawal of administration” value [1] was 41.1 ± 13.71%, the “Pain relief effect against peripheral neuropathy” value ([1]; 0.3 mg/kg oral once per day, STZ rat) was “a sustained pain relief effect was confirmed” and the “Nociceptive threshold improve rate (%) After initial single administration” value ([1]; 0.3 mg/kg oral once per day) was −14.6 ± 6.37%. The “Nociceptive threshold improve rate (%) 7 days after start of administration” value ([1]; 0.3 mg/kg oral once per day) was 26.6 ± 9.30%, the “Nociceptive threshold improve rate (%) 14 days after start of administration” value ([1]; 0.3 mg/kg oral once per day) was 27.1 ± 8.39% and the activity at 0.3 µM (rat Schwann cells) was 114%. It also gave an activity at 3 µM (rat Schwann cells) of 248%.
For `O=C(O)CCc1ccccc1OCC[C@@H](O)/C=C/c1cccc(NC(=O)c2ccccc2)c1` [Example 12(1), 3-[2-[(E,3R)-5-(3-Benzamidophenyl)-3-hydroxypent-4-enoxy]phenyl]propanoic acid], the “Nociceptive threshold improve rate (%) 7 days after withdrawal of administration” value [1] was 9.1 ± 13.37%, the “Nociceptive threshold improve rate (%) After initial single administration” value ([1]; 0.3 mg/kg oral once per day) was 6.2 ± 5.72% and the “Nociceptive threshold improve rate (%) 7 days after start of administration” value ([1]; 0.3 mg/kg oral once per day) was 17.4 ± 17.19%. The “Nociceptive threshold improve rate (%) 14 days after start of administration” value ([1]; 0.3 mg/kg oral once per day) was 44.6 ± 11.54%, the activity at 0.3 µM (rat Schwann cells) was 120% and the activity at 3 µM (rat Schwann cells) was 274%.
For `O=C(O)CCc1ccccc1OCC[C@@H](O)/C=C/c1cccc2c1CCN2S(=O)(=O)c1ccccc1` [Example 13(15), 3-[2-[(E,3R)-5-[1-(Benzenesulfonyl)-2,3-dihydroindol-4-yl]-3-hydroxypent-4-enoxy]phenyl]propanoic Acid], the “Nociceptive threshold improve rate (%) 7 days after withdrawal of administration” value [1] was 7.1 ± 9.51%, the “Nociceptive threshold improve rate (%) After initial single administration” value ([1]; 0.3 mg/kg oral once per day) was −15.4 ± 14.26% and the “Nociceptive threshold improve rate (%) 7 days after start of administration” value ([1]; 0.3 mg/kg oral once per day) was 15.9 ± 7.17%. The “Nociceptive threshold improve rate (%) 14 days after start of administration” value ([1]; 0.3 mg/kg oral once per day) was 8.5 ± 11.50%, the activity at 0.3 µM (rat Schwann cells) was 219% and the activity at 3 µM (rat Schwann cells) was 326%.
With `O=C(O)CCc1ccccc1OCC[C@@H](O)/C=C/c1ccc2c(c1)CN(S(=O)(=O)c1ccccc1)C2` [Example 13(16), 3-[2-[(E,3R)-5-[2-(Benzenesulfonyl)-1,3-dihydroisoindol-5-yl]-3-hydroxypent-4-enoxy]phenyl]Propanoic Acid] the “Nociceptive threshold improve rate (%) 7 days after withdrawal of administration” value [1] was −7.8 ± 14.90%, the “Nociceptive threshold improve rate (%) After initial single administration” value ([1]; 0.3 mg/kg oral once per day) was −6.0 ± 3.87% and the “Nociceptive threshold improve rate (%) 7 days after start of administration” value ([1]; 0.3 mg/kg oral once per day) was 25.8 ± 5.28%. The “Nociceptive threshold improve rate (%) 14 days after start of administration” value ([1]; 0.3 mg/kg oral once per day) was 29.6 ± 8.19%, the activity at 0.3 µM (rat Schwann cells) was 170% and the activity at 3 µM (rat Schwann cells) was 377%.
In the case of `O=C(O)CCc1ccccc1OCC[C@@H](O)/C=C/c1cccc(NS(=O)(=O)C2CCCC2)c1` [Example 74(13), 3-[2-[(E,3R)-5-[3-(Cyclopentylsulfonylamino)phenyl]-3-hydroxypent-4-enoxy]phenyl]propanoic acid], the “Nociceptive threshold improve rate (%) 7 days after withdrawal of administration” value [1] is reported as 76.3 ± 13.41%, the “Nociceptive threshold improve rate (%) After initial single administration” value ([1]; 0.3 mg/kg oral once per day) is reported as 2.6 ± 1.69% and the “Nociceptive threshold improve rate (%) 7 days after start of administration” value ([1]; 0.3 mg/kg oral once per day) is reported as 28.3 ± 7.44%. For the same molecule, the “Nociceptive threshold improve rate (%) 14 days after start of administration” value ([1]; 0.3 mg/kg oral once per day) was 57.3 ± 17.63%, the activity at 0.3 µM (rat Schwann cells) was 79.9% and the activity at 3 µM (rat Schwann cells) was 184%.
With `O=C(O)CCc1ccccc1OCCC/C=C/c1cccc(NS(=O)(=O)c2ccccc2)c1` [Example 84, 3-[2-[(E)-5-[3-(Benzenesulfonamido)phenyl]pent-4-enoxy]phenyl]propanoic acid] the “Nociceptive threshold improve rate (%) 7 days after withdrawal of administration” value [1] was 58.8 ± 12.51%, the “Nociceptive threshold improve rate (%) After initial single administration” value ([1]; 0.3 mg/kg oral once per day) was 5.7 ± 2.48% and the “Nociceptive threshold improve rate (%) 7 days after start of administration” value ([1]; 0.3 mg/kg oral once per day) was 35.0 ± 16.24%. The “Nociceptive threshold improve rate (%) 14 days after start of administration” value ([1]; 0.3 mg/kg oral once per day) was 49.9 ± 11.50%, the activity at 0.3 µM (rat Schwann cells) was 162% and the activity at 3 µM (rat Schwann cells) was 445%.
